# Laboratory results: patent US5098898A, “Phospholipid derivatives” (Senju Pharmaceutical Co., Ltd., priority 1989, dated 1992)
# Where a name gives a salt, the structure may show the parent alone.
# Tested on: lipid peroxides (LPO) in rat brain homogenate
# Test: Antioxidant activity (Stocks' method): inhibition of lipid peroxide formation in brain homogenate supernatant, TBA method
# Assay type: biochemical, Male Wistar rats
# Conditions: for Inhibition (%): rat brain homogenate supernatant, 37° C., 60 minutes, MDA by TBA method
# Protocol: Several typical examples of the compound according to the invention were tested for antioxidant activity according essentially to the Stocks' method. Male Wistar rats (about 10 weeks old) were used. After perfusion for removing the blood from the brain, brain tissues were excised and homogenized in 4 weights of 0.1M phosphate-buffered saline (pH 7.4) with water cooling. The homogenate was centrifuged at 1,000×g for 10 minutes and the supernatant was used. The brain homogenate supernatant was diluted with 10 volumes of phosphate-buffered saline and 500 μl of the dilution was incubated at 37° C. for 60 minutes. The reaction was terminated by dipping the test tube into ice. After further addition 490 μl of 0.1M phosphate-buffered saline, assay was performed by the TBA method. The quantity of lipid peroxides (LPO) was expressed in terms of amount of malonedialdehyde (MDA) per milligram of protein. For protein assay, the Lowry method was used.
Compound,Inhibition (%) (dose 1 × 10^-3 M),Inhibition (%) (dose 1 × 10^-4 M),Inhibition (%) (dose 1 × 10^-5 M),"antioxidant activity (in words) (conclusion from the test results, compared to vitamin E)"
"CCCCCCCCCCCCCCCCCC(=O)OCC(COP(=O)(O)OC1=C(O)C(C(O)CO)OC1=O)OC(=O)CCCCCCCCCCCCCCCCC (stereo not drawn) [(1), 1,2-O-Distearoyl-3-glycerophosphoryl-ascorbic acid]",100,100,25.7,–
"CCCCCCCCCCCCCCCC(=O)OCC(COP(=O)(O)OC1=C(O)C(C(O)CO)OC1=O)OC(=O)CCCCCCCCCCCCCCC (stereo not drawn) [(2), 1,2-O-Dipalmitoyl-3-glycerophosphoryl-ascorbic acid]",100,100,55.9,–
"CCCCCCCCCCCCCCCCOCC(COP(=O)(O)OC1=C(O)C(C(O)CO)OC1=O)OCCCCCCCCCCCCCCCC (stereo not drawn) [(3), 1,2-O-Dihexadecyl-3-glycerophosphoryl-ascorbic acid]",100,100,70.4,–
"CCCCCCCCCCCC(=O)OCC(COP(=O)(O)OC1=C(O)C(C(O)CO)OC1=O)OC(=O)CCCCCCCCCCC (stereo not drawn) [(4), 1,2-O-Dilauroyl-3-glycerophosphoryl-ascorbic acid potassium salt]",97.8,100,8.6,–
"CCCCCCCCCCCC(=O)OCC(COC(=O)CCCCCCCCCCC)OP(=O)(O)OC1=C(O)C(C(O)CO)OC1=O (stereo not drawn) [(5), 1,3-O-Dilauroyl-2-glycerophosphoryl-ascorbic acid potassium salt]",100,82.2,20.1,–
"O=C1O[C@H]([C@@H](O)CO)C(O)=C1O [Ascorbic acid, reference compound]",-22.9,-28.6,–,rather promoted oxidation
Vitamin E [reference compound],94.3,62.9,28.6,–
